Results from patent US8258141B2, “Organic compounds” (Novartis AG, priority 2006, dated 2012).
pKi: −log10 of the molar value. Where a name gives a salt, the structure may show the parent alone.

Target: adenosine A2A receptor (Homo sapiens, UniProt P29274)
Experiment: Adenosine A2A receptor agonist assay, method of L. J. Murphree et al, Molecular Pharmacology 61, 455-462 (2002)
Format: binding
Description: Compounds of formula (I) and formula (II) and their pharmaceutically acceptable salts are useful as pharmaceuticals. In particular, they activate the adenosine A2A receptor, i.e. they act as A2A receptor agonists.

Sequence of adenosine A2A receptor (P29274 whole entry): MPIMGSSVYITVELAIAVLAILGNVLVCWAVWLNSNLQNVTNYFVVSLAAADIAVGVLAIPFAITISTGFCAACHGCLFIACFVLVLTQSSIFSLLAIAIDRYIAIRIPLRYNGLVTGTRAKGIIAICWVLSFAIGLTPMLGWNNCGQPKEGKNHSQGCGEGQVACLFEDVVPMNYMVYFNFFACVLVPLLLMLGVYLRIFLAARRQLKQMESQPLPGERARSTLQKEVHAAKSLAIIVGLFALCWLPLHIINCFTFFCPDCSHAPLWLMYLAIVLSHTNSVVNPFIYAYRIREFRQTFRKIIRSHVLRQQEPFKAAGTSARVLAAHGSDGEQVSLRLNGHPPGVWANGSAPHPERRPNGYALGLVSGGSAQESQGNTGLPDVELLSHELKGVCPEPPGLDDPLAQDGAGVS

| Structure (SMILES) | pKi |
| --- | --- |
| O=C(CO)N[C@H]1C[C@@H](n2cnc3c(NCC(c4ccccc4)c4ccccc4)nc(C(=O)NCCNC(=O)NC4CCN(c5ccccn5)CC4)nc32)[C@H](O)[C@@H]1O [Example 14, 9-[(1R,2S,3R,4S)-2,3-Dihydroxy-4-(2-hydroxy-acetylamino)-cyclopentyl]-6-(2,2-diphenyl-ethylamino)-9H-purine-2-carboxylic acid {2-[3-(3,4,5,6-tetrahydro-2H-[1,2′]bipyridinyl-4-yl)-ureido]-ethyl}-amide trifluoroacetate] | 8.60 |
| CCC(=O)N[C@H]1C[C@@H](n2cnc3c(NCC(c4ccccc4)c4ccccc4)nc(N4CC[C@@H](NC(=O)N[C@@H]5CCN(C(=O)c6ccc(C(=O)OC)cc6)C5)C4)nc32)[C@H](O)[C@@H]1O [Example 36, 4-[(R)-3-(3-{(R)-1-[9-((1R,2S,3R,4S)-2,3-Dihydroxy-4-propionylamino-cyclopentyl)-6-(2,2-diphenyl-ethylamino)-9H-purin-2-yl]-pyrrolidin-3-yl}-ureido)-pyrrolidine-1-carbonyl]-benzoic acid methyl ester] | 8.52 |
| CCC(=O)N[C@H]1C[C@@H](n2cnc3c(NCC(c4ccccc4)c4ccccc4)nc(N4CC[C@@H](NC(=O)Nc5ccc(OCc6ccccc6)cc5)C4)nc32)[C@H](O)[C@@H]1O [Example 178, N-{(1S,2R,3S,4R)-4-[2-{(R)-3-[3-(4-Benzyloxy-phenyl)-ureido]-pyrrolidin-1-yl}-6-(2,2-diphenyl-ethylamino)-purin-9-yl]-2,3-dihydroxy-cyclopentyl}-propionamide trifluoroacetate] | 8.10 |

More lines, now with the values ahead:

| pKi | Structure (SMILES) |
| --- | --- |
| 8.08 | N[C@@H]1CCN(c2nc(NCC(c3ccccc3)c3ccccc3)c3ncn([C@@H]4C[C@H](NC(=O)CO)[C@@H](O)[C@H]4O)c3n2)C1 [Example 1, N-{(1S,2R,3S,4R)-4-[2-((R)-3-Amino-pyrrolidin-1-yl)-6-(2,2-diphenyl-ethylamino)-purin-9-yl]-2,3-dihydroxy-cyclopentyl}-2-hydroxy-acetamide trifluoroacetate] |
| 8.80 | CCC(=O)N[C@H]1C[C@@H](n2cnc3c(NCC(c4ccccc4)c4ccccc4)nc(N4CC[C@@H](NC(=O)NCc5ccncc5)C4)nc32)[C@H](O)[C@@H]1O [Example 20, N-((1S,2R,3S,4R)-4-{6-(2,2-diphenyl-ethylamino)-2-[(R)-3-(3-pyridin-4-ylmethyl-ureido)-pyrrolidin-1-yl]-purin-9-yl}-2,3-dihydroxy-cyclopentyl)-propionamide trifluoroacetate] |
